Publication PMC3842171 (Bioorganic & medicinal chemistry letters, 2011)

What was measured:
[1] = test system: HDAC activity (HeLa cell lysates); assay: Fluor de Lys in vitro fluorescence HDAC activity assay using HeLa cell lysates; format: biochemical
HDAC1, HDAC3, and HDAC6 = assay: Single-concentration isoform selectivity screen with Fluor de Lys kit; format: biochemical

SMILES | fold less potent than SAHA ([1]; IC50 ratio versus SAHA) [fold] | isoform preference in single-concentration screen (HDAC1, HDAC3, and HDAC6; 375 nM) | isoform preference in single-concentration screen (HDAC1, HDAC3, and HDAC6; 32 µM) | fold decreased activity compared to the methyl analogue 1e [1] [fold]
CC(CCCCC(=O)Nc1ccccc1)CC(=O)NO (stereo not shown) [Compound 1e] | 4 | slight preference for HDAC1 over HDAC3 and HDAC6 |  | 
C=CC(CCCCC(=O)Nc1ccccc1)CC(=O)NO (stereo not shown) [Compound 1d] |  |  | preference for HDAC6 over HDAC3 | 
O=C(CC(CCCCC(=O)Nc1ccccc1)c1ccccc1)NO (stereo not shown) [Compound 1b] |  |  | preference for HDAC6 over HDAC3 | 
CCC(CCCCC(=O)Nc1ccccc1)CC(=O)NO (stereo not shown) [Compound 1c] |  |  | greater potency for HDAC6 over HDAC1 and HDAC3 | 91
CCCCC(CCCCC(=O)Nc1ccccc1)CC(=O)NO (stereo not shown) [Compound 1a, C3-n-butyl SAHA] |  |  | preference for HDAC6 over HDAC3 | 
